{"source": "ChEMBL document CHEMBL5385850", "about": "“Identification of novel aza-analogs of TN-16 as disrupters of microtubule dynamics through a multicomponent reaction” (Eur J Med Chem, 2023)", "key": {"SH-SY5Y [1]": {"test_system": "SH-SY5Y", "assay": "Cytotoxicity against human SH-SY5Y cells incubated for 48 hrs by MTT assay", "assay_type": "functional, cell-based"}, "SH-SY5Y [2]": {"test_system": "SH-SY5Y", "assay": "Induction of cell cycle arrest in human SH-SY5Y cells assessed as accumulation of cells at G2/M phase at 1 uM measured after 16 hrs by PI staining based flow cytometry analysis", "assay_type": "functional"}, "Tubulin (Homo sapiens) [3]": {"target": "T1, Tubulin (Homo sapiens) (UniProt P68371+Q9H4B7+P0DPH7+P68366+Q13509+Q71U36+P04350+Q3ZCM7+P07437+P68363+Q9BQE3+Q6PEY2+Q13885+Q9BVA1+Q9BUF5)", "assay": "Inhibition of tubulin polymerization (unknown origin) at 1 to 30 uM measured every 60 secs for 1 hr by fluorescence based analysis", "assay_type": "protein-complex assay", "settings": "dose 1-30 µM, time 60.0 sec"}, "Tubulin (Homo sapiens) [4]": {"target": "T1, Tubulin (Homo sapiens)", "assay": "Inhibition of tubulin polymerization in human SH-SY5Y cells assessed as disappearance of tubulin network structure at 3 times EC50 measured after 16 hrs by immunofluorescence assay", "assay_type": "cell-based"}, "Tubulin (Homo sapiens) [5]": {"target": "T1, Tubulin (Homo sapiens)", "assay": "Inhibition of tubulin polymerization in human SH-SY5Y cells assessed as decrease in depolymerized tubulin to polymerized tubulin ratio at 1 uM measured after 16 hrs by Western blot analysis", "assay_type": "cell-based"}, "SH-SY5Y [6]": {"test_system": "SH-SY5Y", "assay": "Upregulation of tubulin acetylation in human SH-SY5Y cells at 300 nM by immunofluorescence assay", "assay_type": "functional, cell-based"}, "SH-SY5Y [7]": {"test_system": "SH-SY5Y", "assay": "Upregulation of tubulin acetylation in human SH-SY5Y cells at 100 to 1000 nM measured after 16 hrs by Western blot analysis", "assay_type": "functional, cell-based", "settings": "dose 100-1000 nM"}, "MDA-MB-231": {"test_system": "MDA-MB-231", "assay": "Cytotoxicity against human MDA-MB-231 cells incubated for 48 hrs by MTT assay", "assay_type": "functional, cell-based"}, "MCF7": {"test_system": "MCF7", "assay": "Cytotoxicity against human MCF7 cells incubated for 48 hrs by MTT assay", "assay_type": "functional, cell-based"}, "SH-SY5Y [8]": {"test_system": "SH-SY5Y", "assay": "Cytotoxicity against human SH-SY5Y cells at 1 uM incubated for 72 hrs by MTT assay relative to control", "assay_type": "functional"}, "Tubulin (Homo sapiens) [9]": {"target": "T1, Tubulin (Homo sapiens)", "assay": "Inhibition of tubulin polymerization in human SH-SY5Y cells assessed as decrease in depolymerized tubulin to polymerized tubulin ratio at 100 nM measured after 16 hrs by Western blot analysis", "assay_type": "cell-based"}, "SH-SY5Y [10]": {"test_system": "SH-SY5Y", "assay": "Upregulation of tubulin acetylation in human SH-SY5Y cells at 1 uM measured after 16 hrs by Western blot analysis", "assay_type": "functional, cell-based"}, "SH-SY5Y [11]": {"test_system": "SH-SY5Y", "assay": "Upregulation of tubulin acetylation in human SH-SY5Y cells at 70 to 350 nM measured after 16 hrs by Western blot analysis", "assay_type": "functional, cell-based", "settings": "dose 70-350 nM"}, "Tubulin (Homo sapiens) [12]": {"target": "T1, Tubulin (Homo sapiens)", "assay": "Inhibition of tubulin polymerization (unknown origin) measured every 60 secs for 1 hr by fluorescence based analysis", "assay_type": "protein-complex assay", "settings": "dose 1-10 µM"}, "HeLa": {"test_system": "HeLa", "assay": "Cytotoxicity against human HeLa cells incubated for 48 hrs by MTT assay", "assay_type": "functional, cell-based"}, "SH-SY5Y [13]": {"test_system": "SH-SY5Y", "assay": "Upregulation of tubulin acetylation in human SH-SY5Y cells at 200 nM by immunofluorescence assay", "assay_type": "functional, cell-based"}}, "note": "The source made the active and inactive calls. The rule behind the calls is not given here."}
{"smiles": "C#CCOc1cccc(N/C(C)=C2\\C(=O)NN(Cc3ccccc3)C2=O)c1", "values": [{"measurement": "EC50", "setting": "SH-SY5Y [1]", "result": 0.102, "unit": "µM"}, {"measurement": "Activity", "setting": "SH-SY5Y [2]", "result": "Active"}, {"measurement": "inhibition", "setting": "Tubulin (Homo sapiens) [3]", "result": "Active"}, {"measurement": "inhibition", "setting": "Tubulin (Homo sapiens) [4]", "result": "inactive"}, {"measurement": "inhibition", "setting": "Tubulin (Homo sapiens) [5]", "result": "inactive"}, {"measurement": "Activity", "setting": "SH-SY5Y [6]", "result": "Active"}, {"measurement": "Activity", "setting": "SH-SY5Y [7]", "result": "Active"}]}
{"smiles": "COc1ccc(/C=C\\c2cc(OC)c(OC)c(OC)c2)cc1O", "values": [{"measurement": "Activity", "setting": "MDA-MB-231", "result": "inactive"}, {"measurement": "Activity", "setting": "MCF7", "result": "inactive"}]}
{"smiles": "CN(/C=C1\\C(=O)N[C@@H](Cc2ccccc2)C1=O)c1ccccc1", "values": [{"measurement": "Activity", "setting": "SH-SY5Y [8]", "result": 112.4, "unit": "%"}]}
{"smiles": "C/C(Nc1ccccc1)=C1/C(=O)NN(Cc2ccccc2)C1=O", "values": [{"measurement": "Activity", "setting": "SH-SY5Y [8]", "result": 36.2, "unit": "%"}]}
{"smiles": "O=C1N[C@@H](Cc2ccccc2)C(=O)/C1=C/Nc1ccccc1", "values": [{"measurement": "Activity", "setting": "SH-SY5Y [8]", "result": 70.3, "unit": "%"}]}
{"smiles": "CC(=O)O[C@H]1C(=O)[C@@]2(C)[C@H]([C@H](OC(=O)c3ccccc3)[C@]3(O)C[C@H](OC(=O)[C@H](O)[C@@H](NC(=O)c4ccccc4)c4ccccc4)C(C)=C1C3(C)C)[C@]1(OC(C)=O)CO[C@@H]1C[C@@H]2O", "values": [{"measurement": "inhibition", "setting": "Tubulin (Homo sapiens) [9]", "result": "Active"}]}
{"smiles": "C#CCCOc1cccc(N/C(C)=C2\\C(=O)NN(Cc3ccccc3)C2=O)c1", "values": [{"measurement": "EC50", "setting": "SH-SY5Y [1]", "result": 0.79, "unit": "µM"}, {"measurement": "Activity", "setting": "SH-SY5Y [10]", "result": "Active"}]}
{"smiles": "C/C(Nc1cccc(Oc2ccccc2)c1)=C1/C(=O)NN(Cc2ccccc2)C1=O", "values": [{"measurement": "EC50", "setting": "SH-SY5Y [1]", "result": 0.895, "unit": "µM"}, {"measurement": "Activity", "setting": "SH-SY5Y [2]", "result": "Active"}, {"measurement": "Activity", "setting": "SH-SY5Y [10]", "result": "Active"}]}
{"smiles": "C/C(Cc1ccccc1)=C1/C(=O)N[C@@H](Cc2ccccc2)C1=O", "values": [{"measurement": "Activity", "setting": "SH-SY5Y [8]", "result": 100.7, "unit": "%"}]}
{"smiles": "C/C(Nc1ccccc1)=C1/C(=O)N[C@@H](Cc2ccccc2)C1=O", "values": [{"measurement": "Activity", "setting": "SH-SY5Y [8]", "result": 34.7, "unit": "%"}, {"measurement": "EC50", "setting": "SH-SY5Y [1]", "result": 0.068, "unit": "µM"}, {"measurement": "Activity", "setting": "SH-SY5Y [11]", "result": "Active"}, {"measurement": "Activity", "setting": "SH-SY5Y [2]", "result": "Active"}, {"measurement": "Activity", "setting": "MDA-MB-231", "result": "inactive"}, {"measurement": "Activity", "setting": "SH-SY5Y [10]", "result": "inactive"}, {"measurement": "inhibition", "setting": "Tubulin (Homo sapiens) [12]", "result": "Dose-Dependent Effect"}, {"measurement": "Activity", "setting": "MCF7", "result": "inactive"}, {"measurement": "Activity", "setting": "HeLa", "result": "Active"}, {"measurement": "Activity", "setting": "SH-SY5Y [13]", "result": "Active"}, {"measurement": "inhibition", "setting": "Tubulin (Homo sapiens) [4]", "result": "inactive"}, {"measurement": "inhibition", "setting": "Tubulin (Homo sapiens) [5]", "result": "inactive"}]}
